The test system of the assay is L1210 leukemia ip in BDF1 mice, survival T/C. Put plainly: NCI In Vivo Anticancer Drug Screen. Data for tumor model L1210 Leukemia (intraperitoneal) in B6D2F1 (BDF1) mice. Particulars: endpoint: mean survival time, higher = longer survival. Put shortly: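 Tumor was transplanted into mice, which were then dosed with test compound or vehicle alone. Survival was recorded for each group, and the treated figure was expressed relative to the control figure.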

The mark [1] stands for this setting: dose: 12.5 mg/kg/injection, schedule: Q04DX003 (ip), vehicle: saline.
Setting [2] is: dose: 100.0 mg/kg/injection, schedule: Q01DX001 (ip), vehicle: carboxymethylcellulose (CMC).
[3] abbreviates: dose: 200.0 mg/kg/injection, schedule: Q01DX001 (ip), vehicle: carboxymethylcellulose (CMC).
[4] abbreviates: dose: 400.0 mg/kg/injection, schedule: Q01DX001 (ip), vehicle: carboxymethylcellulose (CMC).
The mark [5] stands for this setting: dose: 100.0 mg/kg/injection, schedule: Q01DX001 (ip), vehicle: saline.
Setting [6] is: dose: 200.0 mg/kg/injection, schedule: Q01DX001 (ip), vehicle: saline.
Setting [7] is: dose: 400.0 mg/kg/injection, schedule: Q01DX001 (ip), vehicle: saline.
Where [8] appears, read: dose: 100.0 mg/kg/injection, schedule: Q04DX003 (ip), vehicle: Klucel (hydroxypropylcellulose) (HPC).
Setting [9] is: dose: 200.0 mg/kg/injection, schedule: Q04DX003 (ip), vehicle: Klucel (hydroxypropylcellulose) (HPC).
Where [10] appears, read: dose: 400.0 mg/kg/injection, schedule: Q04DX003 (ip), vehicle: Klucel (hydroxypropylcellulose) (HPC).

Drawing on PubChem BioAssay AID248 (DTP/NCI, 2004), this text covers T/C for 16 compounds.

Structures are written as SMILES. “And” between values parts separate entries of the source, which are not always exact repeats. Identical values can stand only once. Inconclusive results and toxic doses are left out.

As for `CC(=O)NC1=C(Nc2ccc(-c3ccc(NC4=C(NC(C)=O)C(=O)c5ccccc5C4=O)cc3)cc2)C(=O)c2ccccc2C1=O`, the T/C runs as follows: (dose: 3.12 mg/kg/injection, schedule: Q04DX003 (ip), vehicle: saline) 96 % of control; (dose: 4.5 mg/kg/injection, schedule: Q01DX009 (ip), vehicle: saline) 101 % of control; (dose: 6.25 mg/kg/injection, schedule: Q04DX003 (ip), vehicle: saline) 98 % of control; (dose: 9.0 mg/kg/injection, schedule: Q01DX009 (ip), vehicle: saline) 101 % of control; (dose: 12.5 mg/kg/injection, schedule: Q01DX001 (ip), vehicle: saline) 95 % of control; under setting [1], 98 % of control. For the same compound, under “dose: 18.0 mg/kg/injection, schedule: Q04DX003 (ip), vehicle: saline”, the T/C is 87 % of control.
Consider `CC1(C)C2CCC3C(C#N)C(CCC#N)C=CC3C21` (stereo unspecified), for which the T/C was 98 % of control (dose: 100.0 mg/kg/injection, schedule: Q04DX003 (sc), vehicle: olive oil, sesame oil, peanut oil); 97 % of control (dose: 200.0 mg/kg/injection, schedule: Q04DX003 (sc), vehicle: olive oil, sesame oil, peanut oil); 101 % of control (dose: 400.0 mg/kg/injection, schedule: Q04DX003 (sc), vehicle: olive oil, sesame oil, peanut oil).
Regarding `O=C(Nc1ccc(Cl)cc1)c1cc(Cl)cc(Cl)c1Br`, the T/C is 95 % of control under setting [2], 93 % of control under setting [3] and 91 % of control under setting [4].
For the compound `CC(=O)NNc1ccc([N+](=O)[O-])cn1`, the T/C was 100 % of control under setting [5], 100 % of control under setting [6] and 100 % of control under setting [7].
With `c1c[nH]c(Cc2ccc3ccccc3c2)c1`, the T/C is 110 % of control (dose: 100.0 mg/kg/injection, schedule: Q01DX009 (ip), vehicle: other); 102 % of control (dose: 100.0 mg/kg/injection, schedule: Q04DX003 (ip), vehicle: other); 97 % of control (dose: 200.0 mg/kg/injection, schedule: Q01DX009 (ip), vehicle: other); 101 % of control (dose: 200.0 mg/kg/injection, schedule: Q04DX003 (ip), vehicle: other); 110 % of control (dose: 400.0 mg/kg/injection, schedule: Q01DX009 (ip), vehicle: other); 102 % of control (dose: 400.0 mg/kg/injection, schedule: Q04DX003 (ip), vehicle: other).
For `Cc1ccc(N2CCN(CCCN3CCN(c4ccccc4Cl)CC3)CC2)cc1`, the T/C by setting is: (dose: 6.25 mg/kg/injection, schedule: Q01DX009 (ip), vehicle: saline with Tween-80) 99 % of control; (dose: 12.5 mg/kg/injection, schedule: Q01DX009 (ip), vehicle: saline with Tween-80) 89 % of control; under setting [1], 92 % of control; (dose: 25.0 mg/kg/injection, schedule: Q01DX009 (ip), vehicle: saline with Tween-80) 94 % of control; (dose: 25.0 mg/kg/injection, schedule: Q04DX003 (ip), vehicle: saline) 90 % of control.
As to `COc1cc(F)cc([N+](=O)[O-])c1`, the T/C is 95 % of control under setting [2], 97 % of control under setting [3] and 97 % of control under setting [4].
In the case of `COc1cc(N(CCCl)CCCl)c(OC)cc1C=Nc1cccc(F)c1`, the T/C is, setting by setting: (dose: 12.5 mg/kg/injection, schedule: Q01DX001 (ip), vehicle: Klucel (hydroxypropylcellulose) (HPC)) 96 % of control; (dose: 13.0 mg/kg/injection, schedule: Q01DX009 (ip), vehicle: carboxymethylcellulose (CMC)) 116 % of control; (dose: 20.0 mg/kg/injection, schedule: Q01DX001 (ip), vehicle: Klucel (hydroxypropylcellulose) (HPC)) 117 % of control; (dose: 20.0 mg/kg/injection, schedule: Q01DX009 (ip), vehicle: carboxymethylcellulose (CMC)) 120 % of control; (dose: 25.0 mg/kg/injection, schedule: Q01DX001 (ip), vehicle: Klucel (hydroxypropylcellulose) (HPC)) 101 % of control; (dose: 30.0 mg/kg/injection, schedule: Q01DX009 (ip), vehicle: carboxymethylcellulose (CMC)) 118 % of control. Also, the T/C runs as follows: (dose: 50.0 mg/kg/injection, schedule: Q01DX001 (ip), vehicle: Klucel (hydroxypropylcellulose) (HPC)) 98 % of control; (dose: 75.0 mg/kg/injection, schedule: Q01DX001 (ip), vehicle: Klucel (hydroxypropylcellulose) (HPC)) 101 % of control and 118 % of control; (dose: 177.0 mg/kg/injection, schedule: Q01DX001 (ip), vehicle: carboxymethylcellulose (CMC)) 122 % of control; under setting [3], 102 % of control; under setting [4], 153 % of control; (dose: 600.0 mg/kg/injection, schedule: Q01DX001 (ip), vehicle: carboxymethylcellulose (CMC)) 124 % of control.
For `Cc1ccc(C(=O)C2CC2c2ccccc2)cc1` (stereo unspecified), the T/C was 101 % of control under setting [8], 101 % of control under setting [9] and 95 % of control under setting [10].
Regarding `CCSC(=S)SCC(=O)O`, the T/C is 107 % of control (dose: 100.0 mg/kg/injection, schedule: Q04DX003 (ip), vehicle: saline with Tween-80) and 92 % of control (dose: 200.0 mg/kg/injection, schedule: Q04DX003 (ip), vehicle: saline with Tween-80).
`Cc1ccc(S(=O)(=O)OCC(COS(=O)(=O)c2ccc(C)cc2)(COS(=O)(=O)c2ccc(C)cc2)COS(=O)(=O)c2ccc(C)cc2)cc1`: the T/C is, setting by setting: (dose: 50.0 mg/kg/injection, schedule: Q04DX002 (ip), vehicle: Klucel (hydroxypropylcellulose) (HPC)) 97 % of control; (dose: 100.0 mg/kg/injection, schedule: Q04DX002 (ip), vehicle: Klucel (hydroxypropylcellulose) (HPC)) 93 % of control and 105 % of control; (dose: 200.0 mg/kg/injection, schedule: Q04DX002 (ip), vehicle: Klucel (hydroxypropylcellulose) (HPC)) 102 % of control; (dose: 400.0 mg/kg/injection, schedule: Q04DX002 (ip), vehicle: Klucel (hydroxypropylcellulose) (HPC)) 110 % of control.
Consider `C/C=C/C=C\COC(=O)c1ccccc1OCC`, for which the T/C is, setting by setting: (dose: 100.0 mg/kg/injection, schedule: Q04DX002 (ip), vehicle: saline) 98 % of control and 107 % of control; (dose: 200.0 mg/kg/injection, schedule: Q04DX002 (ip), vehicle: saline) 101 % of control and 109 % of control; (dose: 400.0 mg/kg/injection, schedule: Q04DX002 (ip), vehicle: saline) 109 % of control; (dose: 800.0 mg/kg/injection, schedule: Q04DX002 (ip), vehicle: saline) 106 % of control.
Take `CC(C)CSC(SCC(C)C)C(O)C(O)C(O)CO` (stereo unspecified): the T/C is 98 % of control (dose: 75.0 mg/kg/injection, schedule: Q01DX001 (ip), vehicle: carboxymethylcellulose (CMC)); 109 % of control (dose: 150.0 mg/kg/injection, schedule: Q01DX001 (ip), vehicle: carboxymethylcellulose (CMC)); 97 % of control (dose: 300.0 mg/kg/injection, schedule: Q01DX001 (ip), vehicle: carboxymethylcellulose (CMC)).
For `COc1ccc(C)cc1CCC=O`, the T/C under setting [5] is 97 % of control, the T/C under setting [6] is 101 % of control and the T/C under setting [7] was 95 % of control.
`CCC(C)C(C#N)(CCN(CC)CC)c1ccccc1` (stereo unspecified): the T/C is 104 % of control (dose: 50.0 mg/kg/injection, schedule: Q01DX009 (ip), vehicle: Klucel (hydroxypropylcellulose) (HPC)); 100 % of control (dose: 100.0 mg/kg/injection, schedule: Q01DX009 (ip), vehicle: Klucel (hydroxypropylcellulose) (HPC)); 111 % of control under setting [8]; 103 % of control under setting [9].
In the case of `CC(=O)C(C(=O)c1ccccc1)C(c1ccccc1)c1ccccc1` (stereo unspecified), the T/C (dose: 100.0 mg/kg/injection, schedule: Q01DX001 (ip), vehicle: Klucel (hydroxypropylcellulose) (HPC)) was 93 % of control; the T/C under setting [8] was 92 % of control; the T/C (dose: 200.0 mg/kg/injection, schedule: Q01DX001 (ip), vehicle: Klucel (hydroxypropylcellulose) (HPC)) was 90 % of control; the T/C under setting [9] is 96 % of control; the T/C (dose: 400.0 mg/kg/injection, schedule: Q01DX001 (ip), vehicle: Klucel (hydroxypropylcellulose) (HPC)) is 92 % of control; the T/C under setting [10] was 94 % of control.
